Experimental data: patent US20240239775A1, “FXR REGULATOR, PREPARATION METHOD THEREFOR, PHARMACEUTICAL COMPOSITION THEREOF AND USE THEREOF” (QINGDAO RUIJI MEDICAL TECHNOLOGY CO., LTD., priority 2021, published 2024)

Each compound was assayed against T1, FXR (Homo sapiens, UniProt Q96RI1) (assay: FXR antagonist screening by TR-FRET (LanthaScreen TR-FRET FXR co-activation assay kit)). Conditions: Table 1.1, FXR antagonistic activity; TR-FRET with CDCA; geometric means of at least two independent runs.
T1 construct: 5 μL of 20 nM FXR-LBD Complete Coregulator buffer G; purchased ThermoFisher PV4833
T1 sequence (Q96RI1 262-486 limits assumed): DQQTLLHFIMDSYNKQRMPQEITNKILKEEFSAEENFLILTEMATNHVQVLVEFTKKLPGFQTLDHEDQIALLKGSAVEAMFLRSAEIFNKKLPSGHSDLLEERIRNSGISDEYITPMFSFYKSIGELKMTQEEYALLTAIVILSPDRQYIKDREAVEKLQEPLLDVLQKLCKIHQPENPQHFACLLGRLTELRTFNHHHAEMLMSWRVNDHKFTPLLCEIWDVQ
Format: biochemical
Summary of the method: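 FXR-LBD (20 nM working solution) mixed with compound, CDCA (200 μM working solution) as agonist, Fluorescein-SRC2-2 and Tb-anti-GST antibody in Coregulator buffer G; 10 h at room temperature. Coactivator recruitment read by TR-FRET, triplicate wells.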

| SMILES | IC50 [µM] |
| --- | --- |
| CCOC(=O)c1oc2ccc(S(=O)(=O)N(CCc3ccccc3)Cc3ccccc3N3CCN(C(=O)c4ccccc4)CC3)cc2c1C [Example M10-105, ethyl 3-methyl-5-(N-(2-(4-benzoylpiperazin-1-yl)benzyl)-N-phenethylsulfamoyl)benzofuran-2-carboxylate] | 50 to 100 |
| CCOC(=O)c1oc2ccc(S(=O)(=O)N(CCc3ccccc3)c3ccc(N4CCN(C(=O)N(C)C)CC4)cc3)cc2c1C [Example M8-71, ethyl 3-methyl-5-(N-(4-(4-(dimethylcarbamoyl)piperazin-1-yl)phenyl)-N-phenethylsulfamoyl)benzofuran-2-carboxylate] | 50 to 100 |
| CCOC(=O)c1oc2ccc(S(=O)(=O)N(CCc3ccccc3)Cc3ccccc3F)cc2c1C [Example M4-14, ethyl 3-methyl-5-(N-(2-fluorobenzyl)-N-phenethylsulfamoyl)benzofuran-2-carboxylate] | 50 to 100 |
| CCOC(=O)c1oc2ccc(S(=O)(=O)N(CCc3ccccc3)Cc3ccc(C#N)cc3F)cc2c1C [Example M4-54, ethyl 3-methyl-5-(N-(2-fluoro-4-cyanobenzyl)-N-phenethylsulfamoyl)benzofuran-2-carboxylate] | 50 to 100 |
| CCOC(=O)c1oc2ccc(S(=O)(=O)N(CCc3ccccc3)c3ccc(N4CCN(C(=O)OC(C)(C)C)CC4)c(C(F)(F)F)c3)cc2c1C [Example M8-74, ethyl 3-methyl-5-(N-(4-(4-(tert-butoxycarbonyl)piperazin-1-yl)-3-(trifluoromethyl)phenyl)-N-phenethylsulfamoyl)benzofuran-2-carboxylate] | 50 to 100 |
| Cc1c(C(=O)O)oc2ccc(S(=O)(=O)N(CCc3ccccc3)c3ccc(N4CCN(S(C)(=O)=O)CC4)cc3)cc12 [Example F27-S72, 3-methyl-5-(N-(4-(4-(methylsulfonyl)piperazin-1-yl)phenyl)-N-phenethylsulfamoyl)benzofuran-2-carboxylic acid] | 50 to 100 |
| CCOC(=O)c1oc2ccc(S(=O)(=O)N(CCc3ccccc3)Cc3cccc(Br)c3)cc2c1C [Example M4-22, ethyl 3-methyl-5-(N-(3-bromobenzyl)-N-phenethylsulfamoyl)benzofuran-2-carboxylate] | 50 to 100 |
| CCOC(=O)c1oc2ccc(S(=O)(=O)N(CCc3ccccc3)Cc3ccccc3[N+](=O)[O-])cc2c1C [Example M4-19, ethyl 3-methyl-5-(N-(2-nitrobenzyl)-N-phenethylsulfamoyl)benzofuran-2-carboxylate] | 50 to 100 |
| CCOC(=O)c1oc2ccc(S(=O)(=O)N(CCc3ccccc3)Cc3c(F)cccc3Cl)cc2c1C [Example M4-47, ethyl 3-methyl-5-(N-(2-fluoro-6-chlorobenzyl)-N-phenethylsulfamoyl)benzofuran-2-carboxylate] | 50 to 100 |
| Cc1c(C(=O)O)oc2ccc(S(=O)(=O)N(CCc3ccccc3)Cc3ccc(Br)cc3)cc12 [Example F27-S30, 3-methyl-5-(N-(4-bromobenzyl)-N-phenethylsulfamoyl)benzofuran-2-carboxylic acid] | 10 to 50 |
| CCOC(=O)c1oc2ccc(S(=O)(=O)N(CCc3ccccc3)c3ccc(N4CCN(C(=O)CC(C)(C)C)CC4)cc3)cc2c1C [Example M8-66, ethyl 3-methyl-5-(N-(4-(4-(3,3-dimethylbutyryl)piperazin-1-yl)phenyl)-N-phenethylsulfamoyl)benzofuran-2-carboxylate] | 50 to 100 |
| CCOC(=O)c1oc2ccc(S(=O)(=O)N(CCc3ccccc3)Cc3cccc(C(F)(F)F)c3)cc2c1C [Example M4-24, ethyl 3-methyl-5-(N-(3-trifluoromethylbenzyl)-N-phenethylsulfamoyl)benzofuran-2-carboxylate] | 50 to 100 |

Same assay, conditions: Table 1.2, FXR antagonistic activity; TR-FRET with CDCA; geometric means of at least two independent runs

| SMILES | IC50 [µM] |
| --- | --- |
| CCOC(=O)c1sc2ccc(S(=O)(=O)N(CCCc3ccccc3)c3ccccc3N3CCN(C(=O)c4sccc4Br)CC3)cc2c1C [Example M10-175, ethyl 5-(N-(2-(4-(3-bromothiophene-2-carbonyl)piperazin-1-yl)phenyl)-N-(3-phenylpropyl)sulfamoyl)-3-methylbenzothiophene-2-carboxylate] | 50 to 100 |
| Cc1c(CO)oc2ccc(S(=O)(=O)N(CCc3ccccc3)c3ccccc3N3CCN(C(=O)c4sccc4Br)CC3)cc12 [Example F27-S184, N-(2-(4-(3-bromothiophene-2-formyl)piperazin-1-yl)phenyl)-2-hydroxymethyl-3-methyl-N-phenethylbenzofuran-5-sulfonamide] | 0.1 to 10 |
| Cc1c(C(=O)O)oc2ccc(S(=O)(=O)N(CCc3ccccc3)c3ccccc3N3CCN(C(=O)c4cnco4)CC3)cc12 [Example F27-S131, 3-methyl-5-(N-(2-(4-(oxazole-5-carbonyl)piperazin-1-yl)phenyl)-N-phenethylsulfamoyl)benzofuran-2-carboxylic acid] | 0.1 to 10 |
| CCOC(=O)c1oc2ccc(S(=O)(=O)N(CCc3ccccc3)c3ccccc3N3CCN(C(=O)c4ccc(C#Cc5ccccc5)cc4)CC3)cc2c1C [Example M10-138, Ethyl 5-(N-(2-(4-(4-(phenylethynyl)benzoyl)piperazin-1-yl)phenyl)-N-phenethylsulfamoyl)3-methylbenzofuran-2-carboxylate] | 50 to 100 |
| CCOC(=O)c1sc2ccc(S(=O)(=O)N(CCc3ccc(C(F)(F)F)cc3)c3ccccc3N3CCN(C(=O)c4sccc4Br)CC3)cc2c1C [Example M10-169, Ethyl 5-(N-(2-(4-(3-bromothiophene-2-carbonyl)piperazin-1-yl)phenyl)-N-(4-(trifluoromethyl)phenethyl)sulfamoyl)-3-methylbenzothiophene-2-carboxylate] | 50 to 100 |
| CCOC(=O)c1oc2ccc(S(=O)(=O)N(CCc3ccccc3)c3ccccc3N3CCN(C(=O)c4cccc(C)c4)CC3)cc2c1C [Example M10-108, ethyl 3-methyl-5-(N-(2-(4-(3-methylbenzoyl)piperazin-1-yl)phenyl)-N-phenethylsulfamoyl)benzofuran-2-carboxylate] | 50 to 100 |
| Cc1c(C(=O)O)oc2ccc(S(=O)(=O)N(CCc3ccccc3)c3ccccc3N3CCC(NC(=O)c4sccc4Br)CC3)cc12 [Example F27-S147, 5-(N-(2-(4-(3-bromothiophene-2-carboxamido)piperidin-1-yl)phenyl)-N-phenethylsulfamoyl)-3-methylbenzofuran-2-carboxylic acid] | 0.1 to 10 |
| CCOC(=O)c1c(C)c2cc(S(=O)(=O)N(CCc3ccccc3)c3ccccc3N3CCN(C(=O)c4sccc4Br)CC3)ccc2n1C [Example M10-179, Ethyl 5-(N-(2-(4-(3-bromothiophene-2-carbonyl)piperazin-1-yl)phenyl)-N-phenethylsulfamoyl)-1,3-dimethyl-1H-indole-2-carboxylate] | 50 to 100 |
| Cc1c(C(=O)O)sc2ccc(S(=O)(=O)N(CCc3ccccc3[N+](=O)[O-])c3ccccc3N3CCN(C(=O)c4sccc4Br)CC3)cc12 [Example F27-S175, 5-(N-(2-(4-(3-bromothiophene-2-carbonyl)piperazin-1-yl)phenyl)-N-(2-nitrophenylethyl)sulfamoyl)-3-toluothiophene-2-carboxylic acid] | 0.1 to 10 |
| CCOC(=O)c1sc2ccc(S(=O)(=O)N(CCc3ccc(Cl)cc3)c3ccccc3N3CCN(C(=O)c4sccc4Br)CC3)cc2c1C [Example M10-165, ethyl 5-(N-(2-(4-(3-bromothiophene-2-carbonyl)piperazin-1-yl)phenyl)-N-(4-chlorophenylethyl)sulfamoyl)-3-methylbenzothiophene-2-carboxylate] | 50 to 100 |
| Cc1c(C(=O)O)oc2ccc(S(=O)(=O)N(CCc3ccccc3)c3ccccc3N3CCN(C(=O)C4CCCC4)CC3)cc12 [Example F27-S122, 5-(N-(2-(4-(cyclopentanecarbonyl)piperazin-1-yl)phenyl)-N-phenethylsulfamoyl)-3-methylbenzofuran-2-carboxylic acid] | 0.1 to 10 |
| Cc1c(C(=O)O)oc2ccc(S(=O)(=O)N(CCc3ccccc3)c3ccccc3N3CCN(C(=O)c4ccc(NC(=O)OC(C)(C)C)cc4)CC3)cc12 [Example F27-S113] | 0.1 to 10 |
| CCOC(=O)c1oc2ccc(S(=O)(=O)N(CCc3ccccc3)c3ccccc3N3CCN(C(=O)c4ccccn4)CC3)cc2c1C [Example M10-117, ethyl 3-methyl-5-(N-phenethyl-N-(2-(4-pyridineformylpiperazin-1-yl)phenyl)sulfamoyl)benzofuran-2-carboxylate] | 50 to 100 |
| Cc1c(C(=O)O)oc2ccc(S(=O)(=O)N(CCc3ccccc3)c3ccccc3N3CCN(C(=O)c4sccc4Br)C(C)C3)cc12 (stereo not shown) [Example F27-S156, 5-(N-(2-(4-(3-bromothiophene-2-formyl)-3-methylpiperazin-1-yl)phenyl)-N-phenethylsulfamoyl)3-methylbenzofuran-2-carboxylic acid] | 0.1 to 10 |
| Cc1csc(C(=O)N2CCN(c3ccccc3N(CCc3ccccc3)S(=O)(=O)c3ccc4oc(C(=O)O)c(C)c4c3)CC2)c1 [Example F27-S140, 5-(N-(2-(4-(4-methylthiophene-2-formyl)piperazin-1-yl)phenyl)-N-phenethylsulfamoyl)3-methylbenzofuran-2-carboxylic acid] | 0.1 to 10 |
| CCOC(=O)c1sc2ccc(S(=O)(=O)N(CCc3cccc(Cl)c3)c3ccccc3N3CCN(C(=O)c4sccc4Br)CC3)cc2c1C [Example M10-171, Ethyl 5-(N-(2-(4-(3-bromothiophene-2-carbonyl)piperazin-1-yl)phenyl)-N-(3-chlorophenylethyl)sulfamoyl)-3-methylbenzothiophene-2-carboxylate] | 50 to 100 |
